Data reported in patent US7235379B2, “Method and medium for the detection/identification of microorgranisms with esterase activity” (Bio Merieux, priority 2000, dated 2007).
Where “and” joins values, the source holds several entries; their conditions need not be identical. Equal entries are not always repeated. Where two headings read alike, the source gives them in different places.

How the values were obtained:
Format in all cases: cell-based
[1] = tested on: Salmonella spp. 017; assay: Ex.4 colony coloration, 5-bromo-3-indolyl nonanoate, DMSO/Tween 20, MacConkey; set-up: key to color: —: absence of colour or intensity
[2] = tested on: Salmonella enteritidis 006; assay: as above
[3] = tested on: Salmonella typhi 118; for intensity of coloration: key: 0: no activity; 0.1: trace of coloration; 0.5: very pale coloration; 1: distinct coloration of low intensity; 2: clear coloration of medium intensity; 3: intense coloration; 4: very intense coloration
[4] = tested on: Salmonella arizonae 018; assay: Ex.4 colony coloration, 5-bromo-3-indolyl nonanoate, DMSO/Tween 20, MacConkey; for intensity of coloration: key: 0: no activity; 0.1: trace of coloration; 0.5: very pale coloration; 1: distinct coloration of low intensity; 2: clear coloration of medium intensity; 3: intense coloration; 4: very intense coloration
[5] = tested on: Escherichia coli 002; assay: as above; set-up: key: —: absence of colour or intensity
[6] = tested on: Hafnia alvei 025; assay: as above; set-up: key: —: absence of colour or intensity
[7] = tested on: bacterial species exhibiting esterase activity; assay: Ex.4 overall conclusion, colony coloration; settings: experimental conditions of Example 4
Excerpt: This medium is then separated into eight portions.

## CCCCC(CC)COS(=O)(=O)[O-].[Na+] (centres unmarked) [Tergitol 8]
[1]; 2 ml/l Tergitol 8, 24 h
  color: gray
  intensity of coloration: 0.5
[1]; 2 ml/l Tergitol 8, 48 h
  color: gray
  intensity of coloration: 1.5
[1]; 4 ml/l Tergitol 8, 24 h
  color: gray
  intensity of coloration: 0.3
[1]; 4 ml/l Tergitol 8, 48 h
  color: gray
  intensity of coloration: 1
[1]; 8 ml/l Tergitol 8, 24 h
  color: —
[1]; 8 ml/l Tergitol 8, 48 h
  color: gray
  intensity of coloration: 0.5
[2]; 2 ml/l Tergitol 8, 24 h
  color: gray
  intensity of coloration: 3
[2]; 2 ml/l Tergitol 8, 48 h
  color: gray
  intensity of coloration: 4
[2]; 4 ml/l Tergitol 8, 24 h
  color: gray
  intensity of coloration: 2.5
[2]; 4 ml/l Tergitol 8, 48 h
  color: gray
  intensity of coloration: 3
[2]; 8 ml/l Tergitol 8, 24 h
  color: gray
  intensity of coloration: 3
[2]; 8 ml/l Tergitol 8, 48 h
  color: gray
  intensity of coloration: 3.5
[3]
  color: gray
  intensity of coloration: 1 and 1.5 and 2
[4]; 2 ml/l Tergitol 8, 24 h
  color: gray
  intensity of coloration: 2
[4]; 2 ml/l Tergitol 8, 48 h
  color: gray
  intensity of coloration: 4
[4]; 4 ml/l Tergitol 8, 24 h
  color: gray
  intensity of coloration: 2
[4]; 4 ml/l Tergitol 8, 48 h
  color: gray
  intensity of coloration: 2.5
[4]; 8 ml/l Tergitol 8, 24 h
  color: gray
  intensity of coloration: 2
[4]; 8 ml/l Tergitol 8, 48 h
  color: gray
  intensity of coloration: 2.5
[5]; 2 ml/l Tergitol 8, 24 h
  color: —
[5]; 2 ml/l Tergitol 8, 48 h
  color: —
[5]; 4 ml/l Tergitol 8, 24 h
  color: —
[5]; 4 ml/l Tergitol 8, 48 h
  color: —
[5]; 8 ml/l Tergitol 8, 24 h
  color: —
[5]; 8 ml/l Tergitol 8, 48 h
  color: —
[6]; 2 ml/l Tergitol 8, 24 h
  color: —
[6]; 2 ml/l Tergitol 8, 48 h
  color: —
[6]; 4 ml/l Tergitol 8, 24 h
  color: —
[6]; 4 ml/l Tergitol 8, 48 h
  color: —
[6]; 8 ml/l Tergitol 8, 24 h
  color: —
[6]; 8 ml/l Tergitol 8, 48 h
  color: —
[7]
  effect on the esterase activity compared with Tergitol 4: not as pronounced as that observed with Tergitol 4

## polyethylene glycol mono-p-isooctylphenyl ether [Triton X100]
[1]; 8 ml/l Triton X100, 24 h
  color: gray
  intensity of coloration: 1
[1]; 8 ml/l Triton X100, 48 h
  color: gray
  intensity of coloration: 3
[1]; 16 ml/l Triton X100, 24 h
  color: gray
  intensity of coloration: 0.5
[1]; 16 ml/l Triton X100, 48 h
  color: gray
  intensity of coloration: 2
[1]; 32 ml/l Triton X100, 24 h
  color: —
[1]; 32 ml/l Triton X100, 48 h
  color: gray
  intensity of coloration: 0.5
[2]; 8 ml/l Triton X100, 24 h
  color: gray
  intensity of coloration: 2
[2]; 8 ml/l Triton X100, 48 h
  color: gray
  intensity of coloration: 2.5
[2]; 16 ml/l Triton X100, 24 h
  color: gray
  intensity of coloration: 2
[2]; 16 ml/l Triton X100, 48 h
  color: gray
  intensity of coloration: 2.5
[2]; 32 ml/l Triton X100, 24 h
  color: gray
  intensity of coloration: 1
[2]; 32 ml/l Triton X100, 48 h
  color: gray
  intensity of coloration: 1.5
[3]; 8 ml/l Triton X100, 24 h
  color: gray
  intensity of coloration: 1
[3]; 8 ml/l Triton X100, 48 h
  color: gray
  intensity of coloration: 1
[3]; 16 ml/l Triton X100, 24 h
  color: gray
  intensity of coloration: 1
[3]; 16 ml/l Triton X100, 48 h
  color: gray
  intensity of coloration: 1
[3]; 32 ml/l Triton X100, 24 h
  color: gray
  intensity of coloration: 0.5
[3]; 32 ml/l Triton X100, 48 h
  color: gray
  intensity of coloration: 0.5
[4]; 8 ml/l Triton X100, 24 h
  color: gray
  intensity of coloration: 2
[4]; 8 ml/l Triton X100, 48 h
  color: gray
  intensity of coloration: 2.5
[4]; 16 ml/l Triton X100, 24 h
  color: gray
  intensity of coloration: 2
[4]; 16 ml/l Triton X100, 48 h
  color: gray
  intensity of coloration: 2.5
[4]; 32 ml/l Triton X100, 24 h
  color: gray
  intensity of coloration: 1
[4]; 32 ml/l Triton X100, 48 h
  color: gray
  intensity of coloration: 2
[5]; 8 ml/l Triton X100, 24 h
  color: —
[5]; 8 ml/l Triton X100, 48 h
  color: —
[5]; 16 ml/l Triton X100, 24 h
  color: —
[5]; 16 ml/l Triton X100, 48 h
  color: —
[5]; 32 ml/l Triton X100, 24 h
  color: —
[5]; 32 ml/l Triton X100, 48 h
  color: —
[6]; 8 ml/l Triton X100, 24 h
  color: —
[6]; 8 ml/l Triton X100, 48 h
  color: —
[6]; 16 ml/l Triton X100, 24 h
  color: —
[6]; 16 ml/l Triton X100, 48 h
  color: —
[6]; 32 ml/l Triton X100, 24 h
  color: —
[6]; 32 ml/l Triton X100, 48 h
  color: —
[7]
  effect on the esterase activity compared with Tergitol 4: not as pronounced as that observed with Tergitol 4
